Experiments:
[1] = Decomposition check of non-aqueous 5-ALA solutions by capillary electrophoresis; format: physicochemical; conditions: 10% solutions (weight/vol) in 1,2-propylene glycol and glycerol, after complete dissolution
Description: 10% solutions (weight/vol) of […] in 1,2-propylene glycol and glycerol were prepared.

[2] = UV-VIS measurement of 5-ALA solution after dilution with water; format: physicochemical; conditions: 10% water-free solution, water added 1:1, subsequently diluted 1:100 with water
Description: This was detected by measuring the decrease of absorbance at 447 nm (FIG. 2).

Question: Which “degradation products (DHPY, PY, porphobilinogen) in capillary electrophoresis” value [1] does the source give for NCC(=O)CCC(=O)O [5-ALA, 5-aminolevulinic acid] here?
Answer: Its value is “neither DHPY, PY nor porphobilinogen were detected”.

Question: What about the “by-products in UV spectrum” value [2] of the same compound?
Answer: Its value is “without the presence of by-products”.

— US20030125388A1, “5-Aminolevulinic acid formulation dissolved/dispersed in non-aqueous solvents” (priority 2000, published 2003)
